ChEMBL document CHEMBL1156081, “Discovery of 4-functionalized phenyl-O-beta-D-glycosides as a new class of mushroom tyrosinase inhibitors” (Bioorg Med Chem Lett, 2009)
Active and inactive are the calls of the source. The rule behind the calls is not given here.

What was measured:
Tyrosinase = molecular target: T1, Tyrosinase (Agaricus bisporus, UniProt O42713); assay: Inhibition of mushroom tyrosinase
T1 sequence (O42713 whole entry): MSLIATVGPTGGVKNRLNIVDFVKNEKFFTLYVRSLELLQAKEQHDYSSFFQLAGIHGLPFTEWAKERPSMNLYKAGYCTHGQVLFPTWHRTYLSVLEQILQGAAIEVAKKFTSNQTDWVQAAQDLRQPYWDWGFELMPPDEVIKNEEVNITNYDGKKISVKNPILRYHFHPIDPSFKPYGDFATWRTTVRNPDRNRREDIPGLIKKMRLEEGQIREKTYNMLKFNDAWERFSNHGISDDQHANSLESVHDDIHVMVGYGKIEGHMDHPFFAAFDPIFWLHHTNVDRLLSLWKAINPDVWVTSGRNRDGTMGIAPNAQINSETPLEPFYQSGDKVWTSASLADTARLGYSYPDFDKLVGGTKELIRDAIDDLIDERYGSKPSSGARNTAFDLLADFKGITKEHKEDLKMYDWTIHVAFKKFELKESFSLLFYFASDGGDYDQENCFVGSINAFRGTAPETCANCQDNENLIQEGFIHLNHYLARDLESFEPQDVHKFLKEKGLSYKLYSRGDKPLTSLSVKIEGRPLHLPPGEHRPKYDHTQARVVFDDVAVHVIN

[1] = molecular target: T2, Tyrosinase (Agaricus bisporus) (UniProt O42713); assay: Inhibition of mushroom tyrosinase at 200 uM
T2 sequence (whole entry): T1 sequence (O42713 whole entry)

[2] = molecular target: T2, Tyrosinase (Agaricus bisporus); details: 1.06 to 0.12 uM
Description: Competitive inhibition of mushroom tyrosinase assessed as L-DOPA oxidation at 1.06 to 0.12 uM by Lineweaver-Burke double reciprocal plot

[3] = molecular target: T2, Tyrosinase (Agaricus bisporus); assay: Reversible inhibition of mushroom tyrosinase assessed as L-DOPA oxidation at 1.2 to 2.4 uM
[4] = molecular target: T2, Tyrosinase (Agaricus bisporus); assay: Competitive-uncompetitive mixed-2 type inhibition of mushroom tyrosinase assessed as L-DOPA oxidation at 0.05 to 0.10 uM by Lineweaver-Burke double reciprocal plot

IC50 (Tyrosinase)	inhibition [1]	Compound	also measured
> 200 µM	inactive	CO/N=C\c1ccc(O[C@@H]2O[C@H](COC(=O)c3ccccc3)[C@@H](OC(=O)c3ccccc3)[C@@H](OC(=O)c3ccccc3)[C@H]2OC(=O)c2ccccc2)cc1	–
3.41 µM	–	CC(=O)OC[C@H]1O[C@@H](Oc2ccc(/C=N\NC(N)=S)cc2)[C@H](OC(C)=O)[C@H](OC(C)=O)[C@@H]1OC(C)=O	–
–	inactive	CC(=O)OC[C@H]1O[C@@H](Oc2ccc(C=O)cc2)[C@H](OC(C)=O)[C@@H](OC(C)=O)[C@H]1OC(C)=O	–
0.31 µM	–	CC(=O)OC[C@H]1O[C@@H](Oc2ccc(/C=N\NC(N)=S)cc2)[C@H](OC(C)=O)[C@@H](OC(C)=O)[C@@H]1OC(C)=O	inhibition [2]: Active; inhibition [3]: Active
> 200 µM	inactive	O=C(OC[C@H]1O[C@@H](Oc2ccc(/C=N\O)cc2)[C@H](OC(=O)c2ccccc2)[C@H](OC(=O)c2ccccc2)[C@@H]1OC(=O)c1ccccc1)c1ccccc1	–
0.41 µM	–	CC(=O)OC[C@H]1O[C@@H](Oc2ccc(/C=N\NC(N)=S)cc2)[C@H](OC(C)=O)[C@@H](OC(C)=O)[C@H]1OC(C)=O	–
> 200 µM	inactive	CC(=O)OC[C@H]1O[C@@H](Oc2ccc(/C=N\O)cc2)[C@H](OC(C)=O)[C@H](OC(C)=O)[C@@H]1OC(C)=O	–
> 200 µM	inactive	CC(=O)OC[C@H]1O[C@@H](Oc2ccc(/C=N\O)cc2)[C@H](OC(C)=O)[C@@H](OC(C)=O)[C@H]1OC(C)=O	–
> 200 µM	inactive	CC(=O)OC[C@H]1O[C@@H](O[C@H]2[C@H](OC(C)=O)[C@@H](OC(C)=O)[C@H](Oc3ccc(/C=N\O)cc3)O[C@@H]2COC(C)=O)[C@H](OC(C)=O)[C@@H](OC(C)=O)[C@H]1OC(C)=O	–
> 200 µM	inactive	CO/N=C\c1ccc(O[C@@H]2O[C@H](CO)[C@@H](O)[C@H](O)[C@H]2O)cc1	–
–	inactive	CC(=O)OC[C@H]1O[C@@H](Oc2ccc(C=O)cc2)[C@H](OC(C)=O)[C@H](OC(C)=O)[C@@H]1OC(C)=O	–
> 200 µM	inactive	CC(=O)OC[C@H]1O[C@@H](Oc2ccc(/C=N\O)cc2)[C@H](OC(C)=O)[C@@H](OC(C)=O)[C@@H]1OC(C)=O	–
–	inactive	O=Cc1ccc(O[C@@H]2O[C@H](COC(=O)c3ccccc3)[C@@H](OC(=O)c3ccccc3)[C@@H](OC(=O)c3ccccc3)[C@H]2OC(=O)c2ccccc2)cc1	–
> 200 µM	inactive	CO/N=C\c1ccc(O[C@@H]2O[C@H](CO)[C@@H](O)[C@@H](O)[C@H]2O)cc1	–
> 200 µM	inactive	CO/N=C\c1ccc(O[C@@H]2O[C@H](COC(C)=O)[C@@H](O[C@@H]3O[C@H](COC(C)=O)[C@H](OC(C)=O)[C@H](OC(C)=O)[C@H]3OC(C)=O)[C@H](OC(C)=O)[C@H]2OC(C)=O)cc1	–
–	inactive	O=Cc1ccc(O[C@@H]2O[C@H](CO)[C@@H](O)[C@H](O)[C@H]2O)cc1	–
–	inactive	CC(=O)OC[C@H]1O[C@@H](Oc2ccc(C=O)cc2)[C@H](OC(C)=O)[C@@H](OC(C)=O)[C@@H]1OC(C)=O	–
–	inactive	O=Cc1ccc(O[C@@H]2O[C@H](CO)[C@@H](O)[C@@H](O)[C@H]2O)cc1	–
0.65 µM	–	CC(=O)OC[C@H]1O[C@@H](O[C@H]2[C@H](OC(C)=O)[C@@H](OC(C)=O)[C@H](Oc3ccc(/C=N\NC(N)=S)cc3)O[C@@H]2COC(C)=O)[C@H](OC(C)=O)[C@@H](OC(C)=O)[C@H]1OC(C)=O	inhibition [4]: Active; inhibition [3]: Active

Second part, the molecule before the results:

Compound	IC50 (Tyrosinase)	inhibition [1]	also measured
NC(=S)N/N=C\c1ccc(O[C@@H]2O[C@H](CO)[C@@H](O)[C@H](O)[C@H]2O)cc1	2.96 µM	–	–
CO/N=C\c1ccc(O[C@@H]2O[C@H](COC(C)=O)[C@H](OC(C)=O)[C@H](OC(C)=O)[C@H]2OC(C)=O)cc1	> 200 µM	inactive	–
CO/N=C\c1ccc(O[C@@H]2O[C@H](COC(C)=O)[C@@H](OC(C)=O)[C@@H](OC(C)=O)[C@H]2OC(C)=O)cc1	> 200 µM	inactive	–
NC(=S)N/N=C\c1ccc(O[C@@H]2O[C@H](COC(=O)c3ccccc3)[C@@H](OC(=O)c3ccccc3)[C@@H](OC(=O)c3ccccc3)[C@H]2OC(=O)c2ccccc2)cc1	52.8 µM	–	–
CO/N=C\c1ccc(O[C@@H]2OC[C@@H](OC(=O)c3ccccc3)[C@H](OC(=O)c3ccccc3)[C@H]2OC(=O)c2ccccc2)cc1	> 200 µM	inactive	–
OC[C@H]1O[C@@H](Oc2ccc(/C=N\O)cc2)[C@H](O)[C@H](O)[C@@H]1O	> 200 µM	inactive	–
CCO/N=C\c1ccc(O)c(O)c1	0.3 µM	–	–
NC(=S)N/N=C\c1ccc(O[C@@H]2OC[C@@H](OC(=O)c3ccccc3)[C@H](OC(=O)c3ccccc3)[C@H]2OC(=O)c2ccccc2)cc1	36.5 µM	–	–
NC(=S)N/N=C\c1ccc(O[C@@H]2O[C@H](CO)[C@@H](O)[C@@H](O)[C@H]2O)cc1	3.61 µM	–	–
CO/N=C\c1ccc(O[C@@H]2O[C@H](COC(C)=O)[C@@H](OC(C)=O)[C@H](OC(C)=O)[C@H]2OC(C)=O)cc1	> 200 µM	inactive	–
OC[C@H]1O[C@@H](Oc2ccc(/C=N\O)cc2)[C@H](O)[C@@H](O)[C@@H]1O	> 200 µM	inactive	–
O=C(O[C@@H]1[C@@H](OC(=O)c2ccccc2)[C@H](Oc2ccc(/C=N\O)cc2)OC[C@H]1OC(=O)c1ccccc1)c1ccccc1	> 200 µM	inactive	–
O=Cc1ccc(O[C@@H]2OC[C@@H](OC(=O)c3ccccc3)[C@H](OC(=O)c3ccccc3)[C@H]2OC(=O)c2ccccc2)cc1	–	inactive	–
